Drawing on PubChem BioAssay (NCI), this text covers GI50 and TGI for eleven molecules.

Some test systems named below: COLO 205 colon; HCC-2998 colon; HCT-15 colon; IGROV1 ovarian; K-562 leukemia; KM12 colon; MOLT-4 leukemia; SF-295 CNS; SF-539 CNS; UO-31 renal.
Holding throughout (assay): NCI tumour cell line growth inhibition, 48 h

Each structure is given as a SMILES string. Where “and” joins values, the source holds several entries; their conditions need not be identical. Equal values may be shown once.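 The compound was tested at five concentrations on cells cultured in 96-well plates, with a 48-hour exposure period. GI50 = concentration required for 50% inhibition of growth. TGI is the concentration that stops growth completely.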 A value given as a limit tells only on which side of the number the result lay.

Consider `COc1ccc(C(=O)/C=C/c2sc(Cl)nc2Cl)cc1`, for which the GI50 was 2.28 µM in the assay on COLO 205 colon; 1.72 µM with HCC-2998 colon; 0.416 µM in the assay on HCT-15 colon; 0.368 µM with IGROV1 ovarian; 0.328 µM with K-562 leukemia; 2.75 µM in the assay on KM12 colon. The GI50 in the assay on MOLT-4 leukemia is 0.369 µM; with SF-295 CNS, 3.07 µM; in the assay on SF-539 CNS it was 1.56 µM; in the assay on UO-31 renal it was 1.45 µM. In addition, the TGI with COLO 205 colon is 6.74 µM; in the assay with HCC-2998 colon, 3.31 µM; in the assay with HCT-15 colon, 2.14 µM; in the assay with IGROV1 ovarian, 1.91 µM; in the assay with K-562 leukemia, over 100 µM; in the assay with KM12 colon, 7.54 µM. Besides, the TGI is 13.6 µM in the assay with MOLT-4 leukemia, 11.7 µM with SF-295 CNS, 4.26 µM in the assay with SF-539 CNS and 2.9 µM with UO-31 renal.
Consider `CNC(=O)c1cc(Oc2ccc3nc(NC(=O)Nc4ccc(CN5CCOCC5)c(C(F)(F)F)c4)sc3c2)ccn1`, for which the GI50 with COLO 205 colon is 2.1 µM; in the assay on HCC-2998 colon it was 3 µM; in the assay with HCT-15 colon, 2.08 µM; in the assay on IGROV1 ovarian it was 2.77 µM; with K-562 leukemia, 1.53 µM; in the assay with KM12 colon it was 0.446 µM. For the same molecule, the GI50 is 2.57 µM in the assay on MOLT-4 leukemia, 1.9 µM in the assay on SF-295 CNS, 1.58 µM in the assay on SF-539 CNS and 1.65 µM with UO-31 renal. For the same molecule, the TGI is 4.58 µM with COLO 205 colon; 7.11 µM with HCC-2998 colon; 7.09 µM in the assay on HCT-15 colon; 10.5 µM in the assay with IGROV1 ovarian; over 100 µM with K-562 leukemia; 2.31 µM with KM12 colon. The TGI with MOLT-4 leukemia is over 100 µM; with SF-295 CNS it was 4.73 µM; with SF-539 CNS it was 3.37 µM; in the assay on UO-31 renal, 3.94 µM.
With `O=C(NC1CCN(Cc2ccccc2)CC1)c1cc(-c2cccnc2)nc2ccc(Cl)cc12`, the GI50 in the assay with COLO 205 colon was 5.28 µM; with HCC-2998 colon it was 5.51 µM; with HCT-15 colon, 4.57 µM; in the assay with IGROV1 ovarian, 16.1 µM; in the assay with K-562 leukemia, 3.43 µM; with KM12 colon, 13.7 µM. The GI50 with MOLT-4 leukemia was 3.05 µM; in the assay on SF-295 CNS, 10.6 µM; in the assay on SF-539 CNS, 11.9 µM; in the assay with UO-31 renal it was 4.24 µM. The TGI was over 100 µM in the assay with COLO 205 colon; over 100 µM in the assay with HCC-2998 colon; 30.5 µM in the assay with HCT-15 colon; 81.8 µM in the assay on IGROV1 ovarian; 76.8 µM with K-562 leukemia; over 100 µM in the assay with KM12 colon. In addition, the TGI in the assay with MOLT-4 leukemia was determined as 9.82 µM; with SF-295 CNS, 26 µM; in the assay with SF-539 CNS it was 24.2 µM; in the assay with UO-31 renal, 21.4 µM.
Turning to `COc1cc2c(Oc3ccc(NC(=O)C4(C(=O)Nc5ccc(F)cc5)CC4)cc3F)ccnc2cc1OCCCN1CCOCC1`, the GI50 in the assay on COLO 205 colon is 0.281 µM and 0.308 µM; with HCC-2998 colon, 1.24 µM and 1.31 µM; with HCT-15 colon it was 0.935 µM and 1.03 µM; in the assay on IGROV1 ovarian, 1.31 µM and 0.645 µM; in the assay with K-562 leukemia, 0.102 µM and 0.15 µM; in the assay on KM12 colon, 0.0177 µM and 0.0189 µM. For the same molecule, the GI50 in the assay with MOLT-4 leukemia is 0.573 µM and 0.547 µM; in the assay on SF-295 CNS it was 0.0519 µM and 0.0663 µM; in the assay on SF-539 CNS, 0.288 µM and 0.456 µM; in the assay with UO-31 renal, 0.984 µM and 0.654 µM. Besides, the TGI was 0.641 µM and 0.934 µM in the assay with COLO 205 colon; 2.62 µM and 4.31 µM in the assay with HCC-2998 colon; 3.8 µM and 4.04 µM in the assay with HCT-15 colon; 8.49 µM and 2.74 µM in the assay with IGROV1 ovarian; 1.78 µM and 1.33 µM in the assay with K-562 leukemia; 1.44 µM and 2.28 µM in the assay on KM12 colon. The TGI is > 24.9 µM and 5.45 µM with MOLT-4 leukemia; 1.26 µM and 1.49 µM in the assay on SF-295 CNS; 1.65 µM and 1.67 µM in the assay with SF-539 CNS; 2.61 µM and 2.04 µM with UO-31 renal.
As to `Cc1ccc2c(c1)[n+](=O)c(C(=O)c1cccs1)c(C(F)(F)F)n2[O-]`, the GI50 with COLO 205 colon is 1.47 µM and 0.842 µM; in the assay with HCC-2998 colon it was 0.638 µM and 0.238 µM; with HCT-15 colon, 0.753 µM and 0.618 µM; with K-562 leukemia, 1.01 µM and 0.466 µM; with KM12 colon it was 0.849 µM and 1.4 µM; in the assay on MOLT-4 leukemia, 4.12 µM. Further, the GI50 with SF-295 CNS was 0.786 µM and 0.842 µM; in the assay on SF-539 CNS it was 0.997 µM; in the assay on UO-31 renal, 1.35 µM. Besides, the TGI is 7.68 µM and 10.9 µM with COLO 205 colon; 2.1 µM and 0.559 µM in the assay with HCC-2998 colon; 7 µM and 14.8 µM with HCT-15 colon; 0.332 µM with IGROV1 ovarian; 50 µM and 19.5 µM with K-562 leukemia; 3.79 µM and 16.3 µM with KM12 colon. Besides, the TGI with MOLT-4 leukemia is 50 µM; in the assay on SF-295 CNS, 2.46 µM and 5.87 µM; in the assay on SF-539 CNS, 2.36 µM; in the assay on UO-31 renal it was 50 µM.
As to `COc1ccccc1-n1cnc(N)c1C(=O)c1cc(OC)c(OC)c(OC)c1`, the GI50 in the assay with COLO 205 colon was 4.5 µM; in the assay on HCC-2998 colon, 6.8 µM; with HCT-15 colon it was 3.36 µM; in the assay on IGROV1 ovarian, 3.88 µM; with K-562 leukemia, 2.12 µM; in the assay with KM12 colon, 3.22 µM. In addition, the GI50 with MOLT-4 leukemia was 4.82 µM; in the assay on SF-295 CNS it was 2.73 µM; in the assay with SF-539 CNS, 2.42 µM; with UO-31 renal, 4.21 µM. In addition, the TGI in the assay with COLO 205 colon was 40.3 µM; with HCC-2998 colon, over 100 µM; with HCT-15 colon, over 100 µM; in the assay with IGROV1 ovarian it was over 100 µM; in the assay with K-562 leukemia it was over 100 µM; in the assay on KM12 colon, over 100 µM. Moreover, the TGI with MOLT-4 leukemia was over 100 µM; in the assay with SF-295 CNS, over 100 µM; in the assay with SF-539 CNS, 9.12 µM; in the assay with UO-31 renal, over 100 µM.
`CC[C@@]1(O)C(=O)OCc2c1cc1n(c2=O)Cc2cc3cc(Cl)ccc3nc2-1`: the GI50 with COLO 205 colon is 0.02 µM and 0.0458 µM; in the assay with HCC-2998 colon, 0.0277 µM and 0.0364 µM; with HCT-15 colon it was 0.0559 µM and 0.106 µM; in the assay with IGROV1 ovarian, 0.0327 µM and 0.162 µM; in the assay with K-562 leukemia, 0.00916 µM and 0.0873 µM; with KM12 colon, 0.0485 µM and 0.127 µM. The GI50 in the assay on MOLT-4 leukemia is 0.00119 µM; in the assay with SF-295 CNS, under 0.001 µM; with SF-539 CNS it was 0.00467 µM; in the assay on UO-31 renal, 0.00266 µM. Further, the TGI with COLO 205 colon was 1.41 µM and 1.47 µM; in the assay with HCC-2998 colon, 0.202 µM and 0.32 µM; in the assay with HCT-15 colon, 10.5 µM; in the assay on IGROV1 ovarian, 1.85 µM and 2.34 µM; with K-562 leukemia it was over 100 µM; in the assay with KM12 colon it was 0.195 µM and 0.446 µM. Also, the values for the TGI in the assay with SF-295 CNS and with UO-31 renal were 0.0893 µM and 0.0816 µM, respectively.
On to `COc1ccc(C(c2ccccc2C(=O)O)c2ccc(OC)c3ccccc23)c2ccccc12`, for which the TGI in the assay on COLO 205 colon is 30.2 µM; with HCC-2998 colon, 19.8 µM; in the assay with HCT-15 colon, 28.8 µM; with IGROV1 ovarian it was 25.5 µM; in the assay on K-562 leukemia, over 100 µM; in the assay on KM12 colon, 23.1 µM. The TGI was found to be 66 µM with MOLT-4 leukemia, 25.6 µM in the assay on SF-295 CNS, 24.4 µM with SF-539 CNS and 19.4 µM with UO-31 renal.
Regarding `Cc1cc2c(cc1Cl)SC(N(c1ccccc1Cl)S(=O)(=O)c1ccc(Br)s1)=NS2(=O)=O`, the GI50 with COLO 205 colon was 12.2 µM; with HCC-2998 colon it was 19.7 µM; in the assay on HCT-15 colon, 15.5 µM; in the assay with IGROV1 ovarian, 19.8 µM; in the assay on K-562 leukemia it was 18.7 µM; in the assay on KM12 colon, 25.8 µM. Also, the GI50 was 15.3 µM in the assay on MOLT-4 leukemia, 30.7 µM with SF-295 CNS, 9.92 µM with SF-539 CNS and 19.9 µM in the assay on UO-31 renal. For the same molecule, the TGI was determined as 28 µM with COLO 205 colon; 53.4 µM with HCC-2998 colon; 32.7 µM with HCT-15 colon; 89.8 µM with IGROV1 ovarian; 54.6 µM with K-562 leukemia; 83.4 µM with KM12 colon. The TGI is 42.5 µM in the assay on MOLT-4 leukemia, over 100 µM with SF-295 CNS, 23.7 µM in the assay on SF-539 CNS and 62 µM with UO-31 renal.
For the molecule `CC12Nc3ccccc3C1=C(c1ccccc1)CC1C(=O)OC(=O)C12` (configuration not stated), the TGI in the assay with COLO 205 colon, in the assay on HCC-2998 colon, in the assay with HCT-15 colon, in the assay with IGROV1 ovarian, with K-562 leukemia and with KM12 colon was over 100 µM in each case. Further, the TGI with MOLT-4 leukemia, with SF-295 CNS, in the assay on SF-539 CNS and in the assay on UO-31 renal was over 100 µM each time.
`O=CC(OC(=O)c1ccccc1)C(OC(=O)c1ccccc1)C(COC(c1ccccc1)(c1ccccc1)c1ccccc1)OC(=O)c1ccccc1` (configuration not stated): the GI50 is 11.8 µM with COLO 205 colon; 17.4 µM in the assay on HCC-2998 colon; 16.6 µM in the assay on HCT-15 colon; 12.4 µM with IGROV1 ovarian; 8.09 µM in the assay with K-562 leukemia; 14.3 µM in the assay on KM12 colon. Also, the GI50 in the assay on MOLT-4 leukemia is 2.64 µM; with SF-295 CNS it was 23.8 µM; in the assay on SF-539 CNS it was 5.28 µM; with UO-31 renal, 10.8 µM. In addition, the TGI with COLO 205 colon was 25.4 µM; in the assay on HCC-2998 colon it was 31.5 µM; with HCT-15 colon, 43.1 µM; with IGROV1 ovarian it was 37.7 µM; with K-562 leukemia, 27.4 µM; with KM12 colon, 31 µM. Besides, the TGI turned out to be 11.7 µM with MOLT-4 leukemia, 73.5 µM in the assay with SF-295 CNS, 19.4 µM with SF-539 CNS and 31.2 µM in the assay with UO-31 renal.
